Target: T1, human TRPV4 (hTRPV4/CHO cells) (Homo sapiens, UniProt Q9HBA0)
T1 construct: expressed in transfected cells; host or cells: CHO-K1
Assay: Test Example 1: TRPV4 inhibitory activity (IC50 value), 4α-PDD stimulation, Fluo4 calcium fluorescence (FLIPR TETRA)
Format: cell-based
Details: Test Example 1, 4α-PDD stimulation, read-out: Test 1 IC50

T1 sequence (Q9HBA0 whole entry): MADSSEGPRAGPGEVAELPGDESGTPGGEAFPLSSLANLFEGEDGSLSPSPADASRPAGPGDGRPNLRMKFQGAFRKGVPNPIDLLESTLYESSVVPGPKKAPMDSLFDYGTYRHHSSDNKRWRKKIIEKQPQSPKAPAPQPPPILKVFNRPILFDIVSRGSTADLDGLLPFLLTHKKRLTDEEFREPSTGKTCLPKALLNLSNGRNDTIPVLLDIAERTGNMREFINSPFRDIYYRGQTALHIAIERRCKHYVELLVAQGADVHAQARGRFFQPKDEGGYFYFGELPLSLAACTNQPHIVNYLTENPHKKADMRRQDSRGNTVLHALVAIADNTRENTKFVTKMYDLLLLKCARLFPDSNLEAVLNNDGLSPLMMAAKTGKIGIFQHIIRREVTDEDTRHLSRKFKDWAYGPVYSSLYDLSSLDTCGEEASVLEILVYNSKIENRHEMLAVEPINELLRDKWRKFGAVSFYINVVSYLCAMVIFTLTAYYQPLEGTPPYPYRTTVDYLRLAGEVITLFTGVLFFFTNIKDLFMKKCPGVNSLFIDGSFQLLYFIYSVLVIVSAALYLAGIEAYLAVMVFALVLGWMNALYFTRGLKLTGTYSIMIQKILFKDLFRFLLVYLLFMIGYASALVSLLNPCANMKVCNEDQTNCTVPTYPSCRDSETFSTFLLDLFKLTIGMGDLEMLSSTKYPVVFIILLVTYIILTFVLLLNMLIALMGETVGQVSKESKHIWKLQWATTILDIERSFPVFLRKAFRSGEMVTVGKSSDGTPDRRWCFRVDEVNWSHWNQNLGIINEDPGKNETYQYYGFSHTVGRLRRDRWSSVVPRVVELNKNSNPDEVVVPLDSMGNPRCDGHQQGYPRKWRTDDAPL

SMILES	IC50 [nM]
CC(O)c1nc(CO)sc1-c1csc(NC(=O)Cc2ccc(S(=O)(=O)C(F)(F)F)cc2)n1 (racemic) [Compound I-235]	< 100
Cc1nc(CO)sc1-c1csc(NC(=O)C2Oc3ccc(Cl)cc3O2)n1 (racemic) [Compound I-238]	< 100
Cc1nc(CO)sc1-c1csc(NC(=O)CC2Cc3ccccc3C2)n1 (racemic) [Compound I-239]	100 to 1000
Cc1nc(C(C)O)sc1-c1csc(NC(=O)Cc2ccc(S(=O)(=O)C(F)(F)F)cc2)n1 (racemic) [Compound I-287]	< 100
Cc1nc(C(C)O)sc1-c1csc(NC(=O)[C@H]2C[C@H](F)C2)n1 (mixture of isomers) [Compound I-298]	1000 to 8000
Cc1nc(C(C)O)sc1-c1csc(NC(=O)[C@H]2C[C@@H](F)C2)n1 (mixture of isomers) [Compound I-299]	1000 to 8000
Cc1nc(C(C)O)oc1-c1csc(NC(=O)Cc2ccc(S(=O)(=O)C(F)(F)F)cc2)n1 (racemic) [Compound I-387]	100 to 1000
Cc1nc(C(C)O)oc1-c1csc(NC(=O)Cn2cc(C(F)(F)F)cn2)n1 (racemic) [Compound I-420]	1000 to 8000
Cc1nc(C(C)O)sc1-c1csc(NC(=O)C2CN(c3ccc(C(F)(F)F)cc3)C2)n1 (racemic) [Compound I-467]	< 100
CC(=O)NC(C)c1nc(CO)sc1-c1csc(NC(=O)Cc2ccc(S(=O)(=O)C(F)(F)F)cc2)n1 (racemic) [Compound I-472]	1000 to 8000
Cc1nc(C(C)O)sc1-c1csc(NC(=O)C2CN(c3ccc(C(F)(F)F)cn3)C2)n1 (racemic) [Compound I-473]	100 to 1000
CC(OC(N)=O)c1nc(CO)sc1-c1csc(NC(=O)Cc2ccc(S(=O)(=O)C(F)(F)F)cc2)n1 (racemic) [Compound I-474]	100 to 1000
CC(O)c1nc(CO)c(-c2csc(NC(=O)Cc3ccc(S(=O)(=O)C(F)(F)F)cc3)n2)s1 (racemic) [Compound I-500]	100 to 1000
Cc1nc(C)c(-c2csc(NC(=O)C3(C)CCN(c4ccc(C(F)(F)F)cc4)CC3)n2)s1 (racemic) [Compound I-512]	< 100
Cc1nc(C)c(-c2csc(NC(=O)C3(CC(=O)OC(C)(C)C)CN(c4ccc(C(F)(F)F)cc4)C3)n2)s1 (racemic) [Compound I-519]	< 100
COc1cc(CC(=O)Nc2nc(-c3sc(C)nc3C)cs2)cc(C(=O)NC(C(C)C)C(F)(F)F)c1 (racemic) [Compound I-527]	< 100
Cc1nc(C)c(-c2csc(NC(=O)C3(CCCO)CN(c4ccc(C(F)(F)F)cc4)C3)n2)s1 (racemic) [Compound I-529]	100 to 1000
Cc1nc(C)c(-c2csc(NC(=O)C3(COCc4ccccc4)CN(c4ccc(C(F)(F)F)cc4)C3)n2)s1 (racemic) [Compound I-530]	< 100
COCC1(C(=O)Nc2nc(-c3sc(C)nc3C)cs2)CN(c2ccc(C(F)(F)F)cc2)C1 (racemic) [Compound I-531]	< 100
Cc1nc(C)c(-c2csc(NC(=O)C3(CO)CN(c4ccc(C(F)(F)F)cc4)C3)n2)s1 (racemic) [Compound I-532]	< 100
Cc1nc(C)c(-c2csc(NC(=O)C3(F)CN(c4ccc(C(F)(F)F)cc4)C3)n2)s1 (racemic) [Compound I-533]	< 100
Cc1nc(C)c(-c2csc(NCC(O)c3ccccc3)n2)s1 (racemic) [II-39]	100 to 1000
Cc1nc(C)c(-c2csc(NC(Cc3ccc(Cl)cc3)C(=O)NCc3ccccc3)n2)s1 (racemic) [II-43]	1000 to 8000
Cc1nc(C)c(-c2csc(NC(Cc3ccc(Cl)cc3)C(=O)Nc3ccccc3)n2)s1 (racemic) [II-44]	1000 to 8000
Cc1nc(C)c(-c2csc(NC(Cc3ccc(Cl)cc3)C(=O)N3CCN(C)CC3)n2)s1 (racemic) [II-45]	1000 to 8000

SMILES	IC50 [nM]
Cc1nc(C)c(-c2csc(NC(Cc3ccc(Cl)cc3)C(=O)NC3CCOCC3)n2)s1 (racemic) [II-46]	1000 to 8000
Cc1nc(C)c(-c2csc(NCC3Cc4cc(Cl)ccc4O3)n2)s1 (racemic) [II-48]	< 100
CCCCOC(CNc1nc(-c2sc(C)nc2C)cs1)c1ccc(Cl)cc1 (racemic) [II-50]	100 to 1000
CC(OC(N)=O)c1nc(CO)sc1-c1csc(NC(=O)Cc2ccc(S(=O)(=O)C(F)(F)F)cc2)n1 (single isomer, unassigned) [Compound I-478]	100 to 1000
CC(OC(N)=O)c1nc(CO)sc1-c1csc(NC(=O)Cc2ccc(S(=O)(=O)C(F)(F)F)cc2)n1 (single isomer, unassigned) [Compound I-479]	1000 to 8000
CC(=O)NC(C)c1nc(CO)sc1-c1csc(NC(=O)Cc2ccc(S(=O)(=O)C(F)(F)F)cc2)n1 (single isomer, unassigned) [Compound I-481]	100 to 1000
CC(=O)NC(C)c1nc(CO)sc1-c1csc(NC(=O)Cc2ccc(S(=O)(=O)C(F)(F)F)cc2)n1 (single isomer, unassigned) [Compound I-482]	100 to 1000
Cc1nc(CO)sc1-c1csc(NC(=O)OC(C)(C)C)n1 [Compound I-30]	1000 to 8000
Cc1nc(C)c(-c2nc(NC(=O)Cc3c(F)cccc3F)sc2-c2ccncc2)s1 [Compound I-60]	1000 to 8000
Cc1nc(C)c(-c2nc(NC(=O)Cc3c(F)cccc3F)sc2-c2cscn2)s1 [Compound I-61]	100 to 1000
Cc1nc(C)c(-c2nc(NC(=O)Cc3c(F)cccc3F)sc2-c2cnn(C)c2)s1 [Compound I-62]	1000 to 8000
Cc1nc(C)c(-c2nc(NC(=O)Cc3c(F)cccc3F)sc2-c2cccnc2)s1 [Compound I-63]	1000 to 8000
Cc1nc(C)c(-c2nc(NC(=O)Cc3c(F)cccc3F)sc2-c2ccccc2O)s1 [Compound I-64]	100 to 1000
Cc1nc(C)c(-c2nc(NC(=O)Cc3c(F)cccc3F)sc2I)s1 [Compound I-65]	1000 to 8000
Cc1nc(C)c(-c2nc(NC(=O)Cc3c(F)cccc3F)sc2-c2ccccc2Cl)s1 [Compound I-66]	1000 to 8000
Cc1nc(C)c(-c2nc(NC(=O)Cc3c(F)cccc3F)sc2-c2ccc(N(C)C)cc2)s1 [Compound I-67]	1000 to 8000
Cc1nc(C)c(-c2nc(NC(=O)Cc3c(F)cccc3F)sc2-c2cccc(N(C)C)c2)s1 [Compound I-68]	1000 to 8000
Cc1nc(C)c(-c2nc(NC(=O)Cc3c(F)cccc3F)sc2-c2ccc(O)cc2)s1 [Compound I-69]	1000 to 8000
Cc1nc(C)c(-c2nc(NC(=O)Cc3c(F)cccc3F)sc2-c2cccc(O)c2)s1 [Compound I-70]	1000 to 8000
C=C(C)c1sc(NC(=O)Cc2c(F)cccc2F)nc1-c1sc(C)nc1C [Compound I-71]	1000 to 8000
Cc1nc(C)c(-c2nc(NC(=O)Cc3c(F)cccc3F)sc2C)s1 [Compound I-72]	1000 to 8000
Cc1nc(C)c(-c2nc(NC(=O)Cc3c(F)cccc3F)sc2/C=C\c2ccccc2)s1 [Compound I-73]	1000 to 8000
Cc1nc(C)c(-c2nc(NC(=O)Cc3c(F)cccc3F)sc2CO)s1 [Compound I-74]	1000 to 8000
Cc1nc(C)c(-c2nc(NC(=O)Cc3c(F)cccc3F)sc2C(=O)Nc2ccccc2)s1 [Compound I-75]	1000 to 8000
Cc1nc(CO)sc1-c1csc(NC(=O)Cc2c(F)cccc2F)n1 [Compound I-76]	< 100

SMILES	IC50 [nM]
Cc1nc(C)c(-c2csc(NC(=O)Cc3cc(F)cc(C#N)c3)n2)s1 [Compound I-77]	< 100
Cc1nc(C)c(-c2csc(NC(=O)Cc3ccc(F)c(C#N)c3)n2)s1 [Compound I-78]	< 100
Cc1nc(C)c(-c2csc(NC(=O)Cc3cccc(S(C)(=O)=O)c3)n2)s1 [Compound I-79]	100 to 1000
CCS(=O)(=O)c1ccc(CC(=O)Nc2nc(-c3sc(C)nc3C)cs2)cc1 [Compound I-80]	100 to 1000
Cc1nc(C)c(-c2nc(NC(=O)Cc3c(F)cccc3F)sc2C(=O)Nc2cccc(Cl)c2)s1 [Compound I-82]	1000 to 8000
Cc1nc(C)c(-c2nc(NC(=O)Cc3c(F)cccc3F)sc2C(=O)NCc2ccccc2)s1 [Compound I-83]	1000 to 8000
Cc1nc(C)c(-c2nc(NC(=O)Cc3c(F)cccc3F)sc2C(=O)Nc2ccc(C#N)cc2)s1 [Compound I-84]	1000 to 8000
Cc1nc(C)c(-c2nc(NC(=O)Cc3c(F)cccc3F)sc2C(=O)Nc2ccc(Cl)cc2)s1 [Compound I-85]	1000 to 8000
Cc1nc(C)c(-c2nc(NC(=O)Cc3c(F)cccc3F)sc2C(=O)Nc2ccccc2Cl)s1 [Compound I-86]	1000 to 8000
CCCCCCNC(=O)c1sc(NC(=O)Cc2c(F)cccc2F)nc1-c1sc(C)nc1C [Compound I-87]	1000 to 8000
Cc1nc(C)c(-c2csc(NC(=O)C3Cc4ccccc4C3)n2)s1 [Compound I-88]	1000 to 8000
Cc1nc(C)c(-c2csc(NC(=O)N3CCC(C(F)(F)F)CC3)n2)s1 [Compound I-89]	1000 to 8000
Cc1nc(C)c(-c2csc(NC(=O)N3CC(F)C3)n2)s1 [Compound I-90]	1000 to 8000
Cc1nc(C)c(-c2csc(NC(=O)N(C)c3c(F)cccc3F)n2)s1 [Compound I-91]	1000 to 8000
Cc1nc(C)c(-c2csc(NC(=O)Cc3ccc(S(C)(=O)=O)cc3F)n2)s1 [Compound I-92]	100 to 1000
Cc1[nH]c(=O)sc1-c1csc(NC(=O)Cc2c(F)cccc2F)n1 [Compound I-93]	100 to 1000
CCOC(=O)c1nc(C)c(-c2csc(NC(=O)Cc3c(F)cccc3F)n2)s1 [Compound I-94]	100 to 1000
Cc1nc(CO)c(-c2csc(NC(=O)Cc3c(F)cccc3F)n2)s1 [Compound I-96]	100 to 1000
Cc1nc(C(C)(C)O)sc1-c1csc(NC(=O)Cc2c(F)cccc2F)n1 [Compound I-97]	100 to 1000
CC(=O)c1nc(C)c(-c2csc(NC(=O)Cc3c(F)cccc3F)n2)s1 [Compound I-98]	100 to 1000
COc1ccccc1CC(=O)Nc1nc(-c2sc(C)nc2C)cs1 [Compound I-99]	< 100
Cc1nc(C)c(-c2csc(NC(=O)Cc3cccc(OC(F)(F)F)c3)n2)s1 [Compound I-100]	< 100
Cc1nc(C)c(-c2csc(NC(=O)Cc3cccc(CN(C)C)c3)n2)s1 [Compound I-101]	1000 to 8000
Cc1nc(C)c(-c2csc(NC(=O)C(C)c3c(F)cccc3F)n2)s1 (stereo not drawn) [Compound I-102]	100 to 1000
Cc1nc(C)c(-c2csc(NC(=O)C(O)c3c(F)cccc3F)n2)s1 (stereo not drawn) [Compound I-103]	1000 to 8000
